According to the supplement of paper PMC3974653:

These compounds were tested on MTT (mouse pheochromocytoma) (assay: IC50 of cell viability (ATP content)). Details: (24 or 48 h).
Outline: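 Each well of a white 1536-well plate received 5 µl of MTT mouse pheochromocytoma cells at 200,000 cells/ml in DMEM containing 5% FBS and 1% horse serum. After overnight culture at 37°C, 5% CO2, cells were exposed for 24 or 48 hrs to 23 nl of library compound in DMSO, pinned at 8 final concentrations from 0.5 nM to 46 µM. CellTiter-Glo luminescence was read after 15 minutes, and IC50 was obtained from a four-parameter logistic fit of signals normalised to positive-control and DMSO wells.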

Compound | IC50 of cell viability [µM]
Nc1cc(O)nc(N)n1 [2,4-Diamino-6-hydroxypyrimidine] | > 46
CCN(CC)N(O)N=O.CCNCC [2-(N,N-DIETHYLAMINO)DIAZENOLATE-2-OXIDE DIETHYLAMONIUM SALT] | > 46
Nc1ncnc(Nc2ccc(Cl)cc2)n1 [2-AMINO-4-(4-CHLOROANILINO)-1,3,5-TRIAZINE] | > 46
N=C(N)NN.O=[S+]([O-])(O)O [2-AMINOGUANIDINE HEMISULFATE] | > 46
Nc1ccc([N+](=O)[O-])cc1O [2-Amino-5-nitrophenol] | > 46
Nc1nc2ccc([N+](=O)[O-])cc2s1 [2-Amino-6-nitrobenzothiazole] | > 46
Brc1ccccc1-c1ccccc1 [2-Bromobiphenyl] | > 46
CCCC(O)C(CC)CO (configuration not stated) [2-ETHYL-1,3-HEXANEDIOL] | > 46
CCOc1ccccc1C(N)=O [2-Ethoxybenzamide (Ethenzamide)] | > 46
CCOCCOC(C)=O [2-Ethoxyethyl acetate] | > 46
O=C(OCCO)c1ccccc1O [2-Hydroxyethyl salicylate] | > 46
Sc1nc2ccccc2s1 [2-Mercaptobenzothiazole] | > 46
COc1ccccc1O [2-Methoxyphenol] | > 46
Cc1ncc[nH]1 [2-Methylimidazole] | > 46
Nc1ccc(N)c([N+](=O)[O-])c1 [2-Nitro-1,4-phenylenediamine] | > 46
O=C(O)CCC(=O)C(=O)O [2-Oxopentanedioic acid] | > 46
OCCOc1ccccc1 [2-Phenoxyethanol] | > 46
O=C(O)c1cc(-c2ccccc2)nc2ccccc12 [2-Phenyl-4-quinolinecarboxylic acid] | > 46
OCCc1ccccc1 [2-Phenylethanol] | > 46
O.O.O.O.[Na+].[O-]c1ccccc1-c1ccccc1 [2-Phenylphenol sodium salt tetrahydrate technical] | > 46
CC(O)COc1ccccc1 (configuration not stated) [2-Propanol, 1-phenoxy-] | > 46

Compound | IC50 of cell viability [µM]
CC(C)O [2-Propanol] | > 46
Oc1ccnc(S)n1 [2-THIOURACIL] | > 46
CC1CC(O)CC(C)(C)C1 (configuration not stated) [3,3,5-TRIMETHYLCYCLOHEXANOL] | > 46
Nc1ccncc1N [3,4-DIAMINOPYRIDINE PHOSPHATE] | > 46
N[C@@H](Cc1cc(I)c(O)c(I)c1)C(=O)O [3,5-DIIODO-L-TYROSINE] | > 46
CN1CC[C@@]23C4OC5=C(OC(C)=O)C=CC(=C25)C[C@@H]1C3\C=C/C4OC(C)=O (some centres not stated) [3,6-Diacetylmorphine] | > 46
C1N2CN3CN1CN(C2)C3 [3-0760 Hexamethylenetetramine] | > 46
OCC(O)COc1ccc(Cl)cc1 (configuration not stated) [3-(4-CHLOROPHENOXY)-1,2-PROPANEDIOL] | > 46
N#CCCN.N#CCCN.O=C(O)/C=C/C(=O)O [3-Aminopropionitrile fumarate] | > 46
OCCCBr [3-Bromo-1-propanol] | > 46
OCCCc1ccccc1 [3-Phenyl-1-propanol] | > 46
OCc1cccnc1 [3-Pyridinemethanol] | > 46
C[N+]1(C)C2CCC1CC(OC(=O)c1c[nH]c3ccccc13)C2.[I-] (configuration not stated) [3-Tropanylindole-3-carboxylate methiodide] | > 46
CCCn1c(=O)[nH]c(=O)c2[nH]cnc21 [3-n-PROPYLXANTHINE] | > 46
CC(=O)O[C@H]1CC[C@@]2(C)C(=CC[C@H]3[C@@H]4CC[C@H](C(C)=O)[C@@]4(C)CC[C@@H]32)C1 [3BETA-ACETOXY-5-PREGNENE-20-ONE] | > 46
O=[S+]([O-])(c1ccc(Cl)cc1)c1ccc(Cl)cc1 [4,4'-Dichlorodiphenyl sulfone] | > 46
Nc1ccc(Sc2ccc(N)cc2)cc1 [4,4'-Thiodianiline] | > 46
Oc1noc2c1CCNC2 [4,5,6,7-TETRAHYDROISOXAZOLO[5,4-c]PYRIDIN-3-OL] | > 46
CC(C)(C)CC(C)(C)c1ccc(O)cc1 [4-(1,1,3,3-Tetramethylbutyl)phenol] | > 46
O=C(O)CCCOc1ccc(Cl)cc1Cl [4-(2,4-Dichlorophenoxy)butyric acid] | > 46
Nc1ccncc1 [4-AMINOPYRIDINE] | > 46
